Laboratory results taken from PubChem BioAssay AID1963423 (Molecular Pharmacology Branch, DTP, NCI, 2024).
pIC50: −log10 of the molar value.

System: 439559-082-T-J2-PDC complex spheroid growth
Test: Anticancer human tumor 439559-082-T-J2-PDC patient-derived colon adenocarcinoma cell line growth inhibition [Asc]
Settings: for pIC50: curve of first compound; for viability, T/C: stronger effect = lower value
Method in brief: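 Tumor cells were grown as complex spheroids with human endothelial cells (HUVEC) and human mesenchymal stem cells as stroma. Agents were tested alone and in combination, in half-log steps down from the clinical Cmax, or from 10 microM where Cmax was unknown.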

[1] = second compound 0.03 µM, first compound 0.0316 µM
[2] = second compound 0.03 µM, first compound 0.1 µM
[3] = second compound 0.03 µM, first compound 0.316 µM
[4] = second compound 0.03 µM, first compound 1 µM
[5] = second compound 0.03 µM, first compound 3.16 µM
[6] = second compound 0.03 µM, first compound 10 µM
[7] = second compound 0.0949 µM, first compound 0.0316 µM
[8] = second compound 0.0949 µM, first compound 0.1 µM
[9] = second compound 0.0949 µM, first compound 0.316 µM
[10] = second compound 0.0949 µM, first compound 1 µM
[11] = second compound 0.0949 µM, first compound 3.16 µM
[12] = second compound 0.0949 µM, first compound 10 µM
[13] = second compound 0.3 µM, first compound 0.0316 µM
[14] = second compound 0.3 µM, first compound 0.1 µM
[15] = second compound 0.3 µM, first compound 0.316 µM
[16] = second compound 0.3 µM, first compound 1 µM
[17] = second compound 0.3 µM, first compound 3.16 µM
[18] = second compound 0.3 µM, first compound 10 µM
[19] = second compound 0.949 µM, first compound 0.0316 µM
[20] = second compound 0.949 µM, first compound 0.1 µM
[21] = second compound 0.949 µM, first compound 0.316 µM
[22] = second compound 0.949 µM, first compound 1 µM
[23] = second compound 0.949 µM, first compound 3.16 µM
[24] = second compound 0.949 µM, first compound 10 µM
[25] = second compound 3 µM, first compound 0.0316 µM
[26] = second compound 3 µM, first compound 0.1 µM
[27] = second compound 3 µM, first compound 0.316 µM
[28] = second compound 3 µM, first compound 1 µM
[29] = second compound 3 µM, first compound 3.16 µM
[30] = second compound 3 µM, first compound 10 µM
[31] = second compound 0.03 µM, first compound 0.00316 µM
[32] = second compound 0.03 µM, first compound 0.01 µM
[33] = second compound 0.0949 µM, first compound 0.00316 µM
[34] = second compound 0.0949 µM, first compound 0.01 µM
[35] = second compound 0.3 µM, first compound 0.00316 µM
[36] = second compound 0.3 µM, first compound 0.01 µM
[37] = second compound 0.949 µM, first compound 0.00316 µM
[38] = second compound 0.949 µM, first compound 0.01 µM
[39] = second compound 3 µM, first compound 0.00316 µM
[40] = second compound 3 µM, first compound 0.01 µM
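Also: spheroids exposed to agents for 7 days starting day 3 after seeding.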
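For viability, T/C in this document: percent of DMSO vehicle control viability with 100% = vehicle.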

| SMILES | pIC50 (second compound 0.03 µM) | pIC50 (second compound 0.0949 µM) | pIC50 (second compound 0.3 µM) | pIC50 (second compound 0.949 µM) | pIC50 (second compound 3 µM) | viability, T/C [1] [%] | viability, T/C [2] [%] | viability, T/C [3] [%] | viability, T/C [4] [%] | viability, T/C [7] [%] | viability, T/C [8] [%] | viability, T/C [9] [%] | viability, T/C [10] [%] | viability, T/C [13] [%] | viability, T/C [14] [%] | viability, T/C [15] [%] | viability, T/C [16] [%] | viability, T/C [19] [%] | viability, T/C [20] [%] | viability, T/C [21] [%] | further results |
| --- | --- | --- | --- | --- | --- | --- | --- | --- | --- | --- | --- | --- | --- | --- | --- | --- | --- | --- | --- | --- | --- |
| C#Cc1c(F)ccc2cc(O)cc(-c3ncc4c(N5CC6CCC(C5)N6)nc(OCC56CCCN5CC(F)C6)nc4c3F)c12 (stereo not given) + CCN1C(C(=O)NC23CCC(C(=O)O)(CC2)CC3)C(c2cccc(Cl)c2F)C2(C(=O)Nc3cc(Cl)ccc32)C12CCCCC2 | 5.94 | 5.66 | 5.79 | 5.66 | 6.23 | 88 | 81.7 | 64 | 50 | 88.8 | 84.8 | 74.5 | 55.2 | 88.5 | 83.5 | 73.4 | 51.2 | 103 | 80.8 | 72.8 | viability, T/C [5]: 48.4%; viability, T/C [6]: 40%; viability, T/C [11]: 49.7%; viability, T/C [12]: 36.2%; viability, T/C [17]: 49.3%; viability, T/C [18]: 39.3%; viability, T/C [22]: 55.7%; viability, T/C [23]: 48.2%; viability, T/C [24]: 36.9%; viability, T/C [25]: 73.6%; viability, T/C [26]: 74.3%; viability, T/C [27]: 56.6%; viability, T/C [28]: 45.2%; viability, T/C [29]: 44.9%; viability, T/C [30]: 37.8% |
| C=C(F)C(=O)N1CCN(c2nc(OCC3CCCN3C)nc3c2CCN(c2cccc4cccc(Cl)c24)C3)CC1CC#N (stereo not given) + CCN1C(C(=O)NC23CCC(C(=O)O)(CC2)CC3)C(c2cccc(Cl)c2F)C2(C(=O)Nc3cc(Cl)ccc32)C12CCCCC2 | 5.18 | 5.24 | 5.20 | 5.20 | 5.29 | 102 | 96.2 | 116 | 93 | 109 | 112 | 107 | 96.7 | 92 | 113 | 103 | 90.5 | 104 | 103 | 105 | viability, T/C [5]: 92.1%; viability, T/C [6]: 27%; viability, T/C [11]: 82.8%; viability, T/C [12]: 22.3%; viability, T/C [17]: 85%; viability, T/C [18]: 27.5%; viability, T/C [22]: 98.2%; viability, T/C [23]: 85.7%; viability, T/C [24]: 26.7%; viability, T/C [25]: 88.3%; viability, T/C [26]: 102%; viability, T/C [27]: 96.3%; viability, T/C [28]: 84.5%; viability, T/C [29]: 80.2%; viability, T/C [30]: 10.2% |
| C=CC(=O)N1CCN(c2nc(=O)n(-c3c(C)ccnc3C(C)C)c3nc(-c4c(O)cccc4F)c(F)cc23)C(C)C1 (stereo not given) + CCN1C(C(=O)NC23CCC(C(=O)O)(CC2)CC3)C(c2cccc(Cl)c2F)C2(C(=O)Nc3cc(Cl)ccc32)C12CCCCC2 | < 5.00 | < 5.00 | < 5.00 | < 5.00 | < 5.00 | 108 | 106 | 108 | 96.5 | 103 | 106 | 110 | 93.2 | 103 | 103 | 110 | 89.7 | 102 | 110 | 117 | viability, T/C [5]: 107%; viability, T/C [6]: 98.6%; viability, T/C [11]: 101%; viability, T/C [12]: 103%; viability, T/C [17]: 100%; viability, T/C [18]: 109%; viability, T/C [22]: 93.8%; viability, T/C [23]: 99%; viability, T/C [24]: 104%; viability, T/C [25]: 94.7%; viability, T/C [26]: 94.6%; viability, T/C [27]: 107%; viability, T/C [28]: 85.7%; viability, T/C [29]: 90%; viability, T/C [30]: 91.8% |
| CNC(C)C(=O)NC1CN(S(=O)(=O)c2cccc(S(=O)(=O)N3CCC4CCC(C(=O)NC(c5ccccc5)c5ccccc5)N4C(=O)C(NC(=O)C(C)NC)C3)c2)CCC2CCC(C(=O)NC(c3ccccc3)c3ccccc3)N2C1=O (stereo not given) + CCN1C(C(=O)NC23CCC(C(=O)O)(CC2)CC3)C(c2cccc(Cl)c2F)C2(C(=O)Nc3cc(Cl)ccc32)C12CCCCC2 | < 6.00 | < 6.00 | < 6.00 | < 6.00 | < 6.00 | 109 | 95.5 | 102 | 88 | 106 | 96.8 | 93 | 84.6 | 113 | 94.8 | 84.7 | 82.5 | 126 | 101 | 92.8 | viability, T/C [31]: 104%; viability, T/C [32]: 110%; viability, T/C [33]: 109%; viability, T/C [34]: 110%; viability, T/C [35]: 109%; viability, T/C [36]: 105%; viability, T/C [37]: 103%; viability, T/C [38]: 113%; viability, T/C [22]: 91.5%; viability, T/C [39]: 99.1%; viability, T/C [40]: 102%; viability, T/C [25]: 109%; viability, T/C [26]: 93.1%; viability, T/C [27]: 75%; viability, T/C [28]: 77.7% |
| COc1c(OCCCN2CCOCC2)ccc2c3n(c(=NC(=O)c4cnc(N)nc4)nc12)CCN3 + CCN1C(C(=O)NC23CCC(C(=O)O)(CC2)CC3)C(c2cccc(Cl)c2F)C2(C(=O)Nc3cc(Cl)ccc32)C12CCCCC2 | < 6.00 | < 6.00 | < 6.00 | < 6.00 | < 6.00 | 94.1 | 71.7 | 63.3 | 57.4 | 90.7 | 69 | 67.3 | 60.8 | 89.4 | 68.7 | 59.7 | 60.9 | 96.6 | 69.5 | 60.6 | viability, T/C [31]: 98.5%; viability, T/C [32]: 98.3%; viability, T/C [33]: 96.4%; viability, T/C [34]: 96.9%; viability, T/C [35]: 88.9%; viability, T/C [36]: 99.9%; viability, T/C [37]: 95.8%; viability, T/C [38]: 98.3%; viability, T/C [22]: 63.1%; viability, T/C [39]: 80.1%; viability, T/C [40]: 83.8%; viability, T/C [25]: 93.2%; viability, T/C [26]: 63%; viability, T/C [27]: 59%; viability, T/C [28]: 55.2% |
